Test results as given in patent US11072617B2, “Bicyclic sulfones and sulfoxides and methods of use thereof” (Genentech, Inc., priority 2017, dated 2021).
pKi: −log10 of the molar value.

The compounds below were run against human RIP1 kinase domain (2-375) (Homo sapiens (Human), UniProt Q13546) (assay: RIP1 kinase inhibition biochemical assay (Transcreener ADP, fluorescence polarization)). Settings: Ki app from tight-binding Morrison equation; 50 nM enzyme, 50 uM ATP, 2 hours incubation.
How it was run: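 Baculovirus-expressed human RIP1 kinase domain (2-375), 50 nM, incubated 2 h with compounds in pH 7.5 Hepes, 30 mM MgCl2, 50 uM ATP, 0.5% DMSO. ADP detected by Transcreener fluorescence-polarization tracer displacement; Ki^app from Morrison tight-binding fit.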

Chain of human RIP1 kinase domain (2-375) (Q13546 2-375): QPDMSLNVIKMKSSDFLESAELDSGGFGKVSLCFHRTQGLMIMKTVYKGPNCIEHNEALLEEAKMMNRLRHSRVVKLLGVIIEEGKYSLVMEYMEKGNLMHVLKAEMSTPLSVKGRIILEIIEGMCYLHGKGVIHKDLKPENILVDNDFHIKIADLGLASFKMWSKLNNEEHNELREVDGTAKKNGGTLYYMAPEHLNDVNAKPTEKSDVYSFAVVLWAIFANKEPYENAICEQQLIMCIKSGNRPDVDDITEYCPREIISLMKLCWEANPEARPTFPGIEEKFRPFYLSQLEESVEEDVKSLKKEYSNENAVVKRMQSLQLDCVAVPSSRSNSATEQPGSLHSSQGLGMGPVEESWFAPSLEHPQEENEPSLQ

| pKi | SMILES |
| --- | --- |
| 6.28 | O=S(=O)(c1nc2n(n1)[C@H](c1ccccc1)C[C@@H]2F)[C@H]1C[C@@H](CO)C1 (single isomer, unassigned) [Example 168] |
| 7.28 | O=S(=O)(c1nc2n(n1)[C@H](c1ccccc1)C[C@@H]2F)[C@H]1C[C@@H](CF)C1 (single isomer, unassigned) [Example 169] |
| 8.22 | O=S(=O)(c1nc2n(n1)[C@H](c1ccccc1)C[C@@H]2F)C1(F)CC1 (single isomer, unassigned) [Example 178] |
| 7.64 | O=S(=O)(c1nc2n(n1)[C@H](c1cc(F)cc(F)c1)C[C@@H]2F)[C@H]1C[C@H](F)C1 (single isomer, unassigned) [Example 193] |
| 6.34 | O=S(=O)(c1nc2n(n1)[C@H](c1cccc(F)c1)C[C@@H]2F)[C@H]1C[C@@H](O)C1 (single isomer, unassigned) [Example 195] |
| 7.17 | O=S(=O)(CCOC(F)F)c1nc2n(n1)[C@H](c1ccccc1)C[C@@H]2F (single isomer, unassigned) [Example 198] |
| 7.54 | O=S(=O)(c1nc2n(n1)[C@H](c1cc(F)cc(Cl)c1)C[C@@H]2F)C1CC1 (single isomer, unassigned) [Example 214] |
| 8.22 | O=S(=O)(c1nc2n(n1)[C@H](c1cccc(F)c1F)C[C@@H]2F)[C@H]1C[C@@H]1F (single isomer, unassigned) [Example 217] |
| 6.72 | O=S(=O)(CCO)c1nc2n(n1)[C@H](c1ccccc1)C[C@@H]2F (single isomer, unassigned) [Example 223] |
| 6.74 | COCCS(=O)(=O)c1nc2n(n1)[C@H](c1ccccc1)C[C@@H]2F (single isomer, unassigned) [Example 224] |
| 6.52 | O=S(=O)(c1nc2n(n1)[C@H](c1ccccc1)C[C@@H]2F)[C@H]1C[C@@H](O)C1 (single isomer, unassigned) [Example 225] |
| 8.03 | O=S(=O)(c1nc2n(n1)[C@H](c1cccc(F)c1)C[C@@H]2F)[C@H]1C[C@H](F)C1 (single isomer, unassigned) [Example 226] |
| 8.22 | O=S(=O)(c1nc2n(n1)[C@H](c1ccccc1)C[C@@H]2F)C1COC1 (single isomer, unassigned) [Example 228] |
| 7.49 | O=S(=O)(c1nc2n(n1)[C@H](c1ccc(F)cc1)C[C@@H]2F)C1CC1F (stereo in doubt) [Example 196, (5S,7S)-7-fluoro-5-(4-fluorophenyl)-2-[(1S,2S)-2-fluorocyclopropyl]sulfonyl-6,7-dihydro-5H-pyrrolo[1,2-b][1,2,4]triazole] |
| 8.10 | O=S(=O)(c1nc2n(n1)[C@H](c1ccc(F)cc1)C[C@@H]2F)C1CC1F (stereo in doubt) [Example 197, (5S,7S)-7-fluoro-5-(4-fluorophenyl)-2-[(1R,2R)-2-fluorocyclopropyl]sulfonyl-6,7-dihydro-5H-pyrrolo[1,2-b][1,2,4]triazole] |
| 8.10 | O=S(=O)(c1nc2n(n1)[C@H](c1cc(F)cc(Cl)c1)C[C@@H]2F)C1CC1F (stereo in doubt) [Example 199, (5S,7S)-5-(3-chloro-5-fluoro-phenyl)-7-fluoro-2-[(1S,2S)-2-fluorocyclopropyl]sulfonyl-6,7-dihydro-5H-pyrrolo[1,2-b][1,2,4]triazole] |
| 7.32 | O=S(=O)(c1nc2n(n1)[C@H](c1cc(F)cc(Cl)c1)C[C@@H]2F)C1CC1F (stereo in doubt) [Example 200, (5S,7S)-5-(3-chloro-5-fluoro-phenyl)-7-fluoro-2-[(1R,2R)-2-fluorocyclopropyl]sulfonyl-6,7-dihydro-5H-pyrrolo[1,2-b][1,2,4]triazole] |
| 7.60 | O=S(=O)(c1nc2n(n1)[C@H](c1cc(F)ccc1F)C[C@@H]2F)C1CC1F (stereo in doubt) [Example 201, (5S,7S)-5-(2,5-difluorophenyl)-7-fluoro-2-[(1S,2S)-2-fluorocyclopropyl]sulfonyl-6,7-dihydro-5H-pyrrolo[1,2-b][1,2,4]triazole] |
| > 8.30 | O=S(=O)(c1nc2n(n1)[C@H](c1cc(F)ccc1F)C[C@@H]2F)C1CC1F (stereo in doubt) [Example 202, (5S,7S)-5-(2,5-difluorophenyl)-7-fluoro-2-[(1R,2R)-2-fluorocyclopropyl]sulfonyl-6,7-dihydro-5H-pyrrolo[1,2-b][1,2,4]triazole] |
| 7.70 | O=S(=O)(c1nc2n(n1)[C@H](c1ccccc1F)C[C@@H]2F)C1CC1F (stereo in doubt) [Example 205, (5S,7S)-7-fluoro-5-(2-fluorophenyl)-2-[(1S,2S)-2-fluorocyclopropyl]sulfonyl-6,7-dihydro-5H-pyrrolo[1,2-b][1,2,4]triazole] |
| 8.00 | O=S(=O)(c1nc2n(n1)[C@H](c1ccccc1F)C[C@@H]2F)C1CC1F (stereo in doubt) [Example 206, (5S,7S)-7-fluoro-5-(2-fluorophenyl)-2-[(1R,2R)-2-fluorocyclopropyl]sulfonyl-6,7-dihydro-5H-pyrrolo[1,2-b][1,2,4]triazole] |
| 7.43 | O=S(=O)(c1nc2n(n1)[C@H](c1cc(Cl)ccc1F)C[C@@H]2F)C1CC1F (stereo in doubt) [Example 207, (5S,7S)-5-(5-chloro-2-fluoro-phenyl)-7-fluoro-2-[(1S,2S)-2-fluorocyclopropyl]sulfonyl-6,7-dihydro-5H-pyrrolo[1,2-b][1,2,4]triazole] |
| > 8.30 | O=S(=O)(c1nc2n(n1)[C@H](c1cccc(F)c1F)C[C@@H]2F)C1CC1F (stereo in doubt) [Example 216, (5S,7S)-5-(2,3-difluorophenyl)-7-fluoro-2-[(1S,2S)-2-fluorocyclopropyl]sulfonyl-6,7-dihydro-5H-pyrrolo[1,2-b][1,2,4]triazole] |
| 6.85 | O=S(=O)(c1nc2n(n1)[C@H](c1cc(Cl)ccc1F)C[C@@H]2F)C1CC1F (stereo in doubt) [Example 218, (5S,7S)-5-(5-chloro-2-fluoro-phenyl)-7-fluoro-2-[(1R,2R)-2-fluorocyclopropyl]sulfonyl-6,7-dihydro-5H-pyrrolo[1,2-b][1,2,4]triazole] |
| 7.74 | N#CC1CC1S(=O)(=O)c1nc2n(n1)[C@H](c1ccccc1)C[C@@H]2F (stereo in doubt) [Example 221, (1S,2S)-2-[[(5S,7S)-7-fluoro-5-phenyl-6,7-dihydro-5H-pyrrolo[1,2-b][1,2,4]triazol-2-yl]sulfonyl]cyclopropanecarbonitrile] |
| 7.21 | N#CC1CC1S(=O)(=O)c1nc2n(n1)[C@H](c1ccccc1)C[C@@H]2F (stereo in doubt) [Example 222, (1R,2R)-2-[[(5S,7S)-7-fluoro-5-phenyl-6,7-dihydro-5H-pyrrolo[1,2-b][1,2,4]triazol-2-yl]sulfonyl]cyclopropanecarbonitrile] |

The remaining lines, values behind:

| SMILES | pKi |
| --- | --- |
| [O-][S@@+](c1nc2n(n1)[C@H](c1cccc(F)c1)C[C@@H]2F)C(F)F (single isomer, unassigned) [Example 179] | 6.68 |
| [O-][S@@+](c1nc2n(n1)[C@H](c1ccccc1)C[C@@H]2F)C(F)(F)F (single isomer, unassigned) [Example 180] | 6.52 |
| [O-][S@+](c1nc2n(n1)[C@H](c1ccccc1)C[C@@H]2F)C(F)(F)F (single isomer, unassigned) [Example 181] | 8.40 |
| [O-][S@+](c1nc2n(n1)[C@H](c1cccc(F)c1)C[C@@H]2F)C(F)F (single isomer, unassigned) [Example 182] | 8.22 |
| [O-][S@@+](CC(F)(F)F)c1nc2n(n1)[C@H](c1ccccc1)C[C@@H]2F (single isomer, unassigned) [Example 183] | 8.40 |
| [O-][S@+](CC1CC1)c1nc2n(n1)[C@H](c1ccccc1)C[C@@H]2F (single isomer, unassigned) [Example 184] | 6.89 |
| [O-][S@+](CC(F)(F)F)c1nc2n(n1)[C@H](c1ccccc1)C[C@@H]2F (single isomer, unassigned) [Example 185] | 7.72 |
| [O-][S@@+](CC1CC1)c1nc2n(n1)[C@H](c1ccccc1)C[C@@H]2F (single isomer, unassigned) [Example 186] | 7.70 |
| CC(C)[S@@+]([O-])c1nc2n(n1)[C@H](c1ccccc1)C[C@@H]2F (single isomer, unassigned) [Example 187] | 8.10 |
| CC[S@@+]([O-])c1nc2n(n1)[C@H](c1ccccc1)C[C@@H]2F (single isomer, unassigned) [Example 188] | 6.29 |
| CC(C)[S@+]([O-])c1nc2n(n1)[C@H](c1ccccc1)C[C@@H]2F (single isomer, unassigned) [Example 189] | 6.12 |
| CC[S@+]([O-])c1nc2n(n1)[C@H](c1ccccc1)C[C@@H]2F (single isomer, unassigned) [Example 190] | 8.10 |
| CC(C)(C)[S@@+]([O-])c1nc2n(n1)[C@H](c1ccccc1)C[C@@H]2F (single isomer, unassigned) [Example 191] | 8.30 |
| N#Cc1cccc([C@@H]2C[C@H](F)c3nc(S(=O)(=O)C(F)F)nn32)c1 (single isomer, unassigned) [Example 192] | 6.46 |
| O=S(=O)(c1nc2n(n1)[C@H](c1cc(F)cc(Cl)c1)C[C@@H]2F)C(F)F (single isomer, unassigned) [Example 215] | 7.49 |
| [O-][S+](c1nc2n(n1)[C@H](c1cc(F)cc(F)c1)CC2)C(F)F (stereo in doubt) [Example 173, (5S)-2-[(S)-difluoromethylsulfinyl]-5-(3,5-difluorophenyl)-6,7-dihydro-5H-pyrrolo[1,2-b][1,2,4]triazole] | 7.72 |
| [O-][S+](c1nc2n(n1)[C@H](c1cc(F)cc(F)c1)CC2)C(F)F (stereo in doubt) [Example 174, (5S)-2-[(R)-difluoromethylsulfinyl]-5-(3,5-difluorophenyl)-6,7-dihydro-5H-pyrrolo[1,2-b][1,2,4]triazole] | 6.51 |
| [O-][S+](c1nc2n(n1)C(c1ccccc1)CC2)C(F)F (centres unmarked) [Example 1, 2-(difluoromethylsulfinyl)-5-phenyl-6,7-dihydro-5H-pyrrolo[1,2-b][1,2,4]triazole] | 7.24 |
